Data taken from patent US8669072B2, “Oxadiazoline ligands for modulating the expression of exogenous genes via an ecdysone receptor complex” (Intrexon Corporation, priority 2003, dated 2014).
pEC50: −log10 of the molar value.

Key:
[1] = target: T1, GAL4 DBD (1-147)-CfEcR(DEF)/VP16AD-βRXREF-LmUSPEF (Choristoneura fumiferana, UniProt O77240); assay: cell-based; conditions: for fold induction at 33.3 µM: 48 h, read-out: Fold Induction Average, 27-63 assay; for Rel Max FI, 27-63 assay: maximum fold induction relative to that of GS-E ligand
T1 construct: The wild-type D, E, and F domains from spruce budworm Choristoneura fumiferana EcR (“CfEcR-DEF”)
Procedure: Stably transfected cells were selected by Zeocin resistance. Individually isolated CHO cell clones were transiently transfected with a GAL4 RE-luciferase reporter (pFR Luc). 27-63 clone was selected using Hygromycin.
(§1) Cells were trypsinized and diluted to a concentration of 2.5×10^4 cells mL. 100 μL of cell suspension was placed in each well of a 96 well plate and incubated at 37° C. under 5% CO2 for 24 h. Ligand stock solutions were prepared in DMSO and diluted 300 fold for all treatments.
(§2) Luciferase reporter gene expression was measured 48 h after cell treatment using Bright-Glo™ Luciferase Assay System from Promega (E2650). Luminescence was detected at room temperature using a Dynex MLX microtiter plate luminometer.
(§3) Each assay was conducted in two separate wells, and the two values were averaged. Fold inductions were calculated by dividing relative light units (“RLU”) in ligand treated cells with RLU in DMSO treated cells. EC50s were calculated from dose response data using a three-parameter logistic model.

[2] = target: T2, GAL4 DBD-CfEcR(DEF)/VP16AD-MmRXRE (Choristoneura fumiferana, UniProt O77240); assay: 13B3 assay: luciferase reporter gene induction in stable CHO clone 13B3; format: cell-based; conditions: 33/33.3 μM ligand, 48 h, RLU relative to DMSO
T2 construct: The wild-type D, E, and F domains from spruce budworm Choristoneura fumiferana EcR (“CfEcR-DEF”)
Procedure: CHO cells were transiently transfected with transcription cassettes for GAL4 DBD-CfEcR(DEF) and for VP16AD-MmRXRF controlled by SV40e promoters. Stably transfected cells were selected using Hygromycin. Individually isolated CHO cell clones were transiently transfected with a GAL4 RE-luciferase reporter (pFR-Luc, Stratagene, La Jolla, Calif.). The 13B3 clone was selected using Zeocin.
as §1, §2, §3

[3] = target: T3, Bombyx mori EcR (VBE) (Bombyx mori, UniProt P49881); assay: Z3 assay: β-galactosidase reporter gene induction in HEK-293 clone Z3 (CVBE / 6XEcRE LacZ); format: cell-based; conditions: 33 μM ligand, 48 h, RLU relative to DMSO; for fold induction at 33 µM: HEK293, read-out: Fold Induction Average, Z3 assay
T3 construct: expressed in transfected cells; host or cells: Human HEK-293 cells, retrovirally infected, clone Z3
T3 sequence (P49881 86-606 limits assumed): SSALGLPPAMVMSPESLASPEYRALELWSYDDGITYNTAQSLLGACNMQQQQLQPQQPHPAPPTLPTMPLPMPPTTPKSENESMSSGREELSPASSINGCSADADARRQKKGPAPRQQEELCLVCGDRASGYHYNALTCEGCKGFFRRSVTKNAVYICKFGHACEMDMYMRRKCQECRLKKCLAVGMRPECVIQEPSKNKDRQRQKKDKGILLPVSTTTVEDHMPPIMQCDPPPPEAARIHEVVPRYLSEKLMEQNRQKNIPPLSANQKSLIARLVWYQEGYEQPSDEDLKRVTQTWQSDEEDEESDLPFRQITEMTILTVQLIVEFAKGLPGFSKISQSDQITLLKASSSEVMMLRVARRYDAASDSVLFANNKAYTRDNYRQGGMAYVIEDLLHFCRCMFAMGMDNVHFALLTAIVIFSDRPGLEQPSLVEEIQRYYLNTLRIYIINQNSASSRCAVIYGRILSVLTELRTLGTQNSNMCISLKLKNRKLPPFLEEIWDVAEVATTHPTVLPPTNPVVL
T3 sequence (P19793 1-462 partner): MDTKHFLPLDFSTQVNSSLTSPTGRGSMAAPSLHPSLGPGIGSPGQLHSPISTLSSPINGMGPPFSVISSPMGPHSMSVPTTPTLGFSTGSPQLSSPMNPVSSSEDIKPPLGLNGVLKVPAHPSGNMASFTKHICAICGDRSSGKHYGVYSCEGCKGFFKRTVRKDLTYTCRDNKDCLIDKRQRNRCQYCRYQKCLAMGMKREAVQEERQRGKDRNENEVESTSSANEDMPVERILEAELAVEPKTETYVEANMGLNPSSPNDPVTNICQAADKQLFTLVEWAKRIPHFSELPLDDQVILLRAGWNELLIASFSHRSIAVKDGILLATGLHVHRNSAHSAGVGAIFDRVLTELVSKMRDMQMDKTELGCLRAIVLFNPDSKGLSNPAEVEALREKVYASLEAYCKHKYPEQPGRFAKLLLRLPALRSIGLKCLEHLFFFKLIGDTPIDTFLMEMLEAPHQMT
Procedure: A synthetic ATG start codon was placed under the control of cytomegalovirus (CVBE) immediate early promoter and flanked by long terminal repeats (LTR). The reporter construct contained six copies of the ecdysone response element (EcRE) binding site placed upstream of LacZ and flanked on both sides with LTR sequences (6×EcRE).
Dilution cloning was used to isolate individual clones. Clones were selected using 450 ug/mL G418 and 100 ng/mL puromycin. Individual clones were evaluated based on their response in the presence and absence of test ligands.
Z3 cells were seeded into 96-well tissue culture plates at a concentration of 2.5×10^3 cells per well and incubated at 37° C. in 5% CO2 for twenty-four hours. Stock solutions of ligands were prepared in DMSO. […] The final concentration of DMSO was maintained at 0.03% in both controls and treatments.
Reporter gene expression was evaluated 48 hours after treatment of cells, β-galactosidase activity was measured using Gal Screen™ bioluminescent reporter gene assay system from Tropix (GSY1000). Fold induction activities were calculated by dividing relative light units (“RLU”) in ligand treated cells with RLU in DMSO treated cells. Luminescence was detected at room temperature using a Dynex MLX microtiter plate luminometer.
as §3

| Structure (SMILES) | pEC50 [1] | fold induction at 33.3 µM [1] | Rel Max FI, 27-63 assay [1] | Fold Induction Average, 13B3 assay [2] | Fold Induction Average, Z3 assay [3] | fold induction at 33 µM [3] |
| --- | --- | --- | --- | --- | --- | --- |
| CCc1ccc(C(=O)NN2C(c3cc(C)cc(C)c3)=NOC23CCOCC3)cc1 [RG-120005] | < 4.48 | 0.8 | 0 |  |  |  |
| CC1(C)ON=C(c2cccc(C(F)(F)F)c2)N1NC(=O)COCc1ccccc1 [RG-120006] |  |  |  | 1.1 | 0.5 |  |
| Cc1cc(C)cc(C2=NOC3(CCOCC3)N2NC(=O)COCc2ccccc2)c1 [RG-120009] |  |  |  | 1.3 | 0.8 |  |
| COc1ccccc1C1=NOC(C)(C)N1NC(=O)c1ccco1 [RG-120012] |  |  |  | 0.7 | 0.7 |  |
| CCOC(=O)CCC(=O)NN1C(c2ccccc2)=NOC12CCCC2 [RG-120014] |  |  |  |  | 1.1 |  |
| CC1(C)ON=C(c2ccc3c(c2)OCO3)N1NC(=O)Nc1ccccc1 [RG-120017] |  |  |  | 0.8 | 0.9 |  |
| COc1ccccc1C1=NOC(C)(C)N1NC(=O)COCc1ccccc1 [RG-120018] |  |  |  | 0.8 | 0.7 |  |
| Cc1cc(C)cc(C2=NOC3(CCOCC3)N2NC(=O)c2ccccc2)c1 [RG-120019] | < 4.48 | 1.5 | 0 |  |  |  |
| CCc1c(OC)cccc1C(=O)NN1C(c2ccc(-c3ccccc3)cc2)=NOC1(C)C [RG-120020] |  |  |  | 1.3 | 0.2 |  |
| CCc1c(OC)cccc1C(=O)NN1C(c2ccc(OC(F)(F)F)cc2)=NOC1(C)C [RG-120022] | < 4.48 | 0.3 | 0 |  |  | 0.1 |
| CCc1c(OC)cccc1C(=O)NN1C(c2ccc3c(c2)OCO3)=NOC1(C)C [RG-120023] | < 4.48 | 1.4 | 0 |  |  | 0.2 |
| COc1ccccc1C1=NOC(C)(C)N1NC(=O)Nc1ccccc1 [RG-120025] |  |  |  | 0.9 | 0.8 |  |
| CC1(C)ON=C(c2ccc(OC(F)(F)F)cc2)N1NC(=O)COc1ccccc1 [RG-120029] |  |  |  | 1.5 | 0.7 |  |
| CC1(C)ON=C(c2ccc(OC(F)(F)F)cc2)N1NC(=O)c1ccccc1 [RG-120033] |  |  |  | 0.9 | 0.7 |  |
| CCOC(=O)CCC(=O)NN1C(c2ccc(OC)cc2OC)=NOC1(C)C [RG-120038] |  |  |  |  | 0.2 |  |
| Cc1cc(C)cc(C2=NOC3(CCCC3)N2NC(=O)Cc2ccccc2)c1 [RG-120046] |  |  |  | 1.3 | 8.9 |  |
| COc1ccccc1C1=NOC(C)(C)N1NC(=O)c1cc2ccccc2s1 [RG-120047] |  |  |  | 973.9 | 31.9 |  |
| Cc1cc(C)cc(C2=NOC3(CCOCC3)N2NC(=O)COc2ccccc2)c1 [RG-120048] |  |  |  |  | 1.0 |  |
| CCC1(C)ON=C(c2cc(C)cc(C)c2)N1NC(=O)COCc1ccccc1 (stereo not drawn) [RG-120050] |  |  |  | 0.9 | 3.5 |  |

| Structure (SMILES) | pEC50 [1] | fold induction at 33.3 µM [1] | Rel Max FI, 27-63 assay [1] | Fold Induction Average, 13B3 assay [2] | Fold Induction Average, Z3 assay [3] | fold induction at 33 µM [3] |
| --- | --- | --- | --- | --- | --- | --- |
| Cc1cc(C)cc(C2=NOC3(CCCC3)N2NC(=O)COCc2ccccc2)c1 [RG-120052] |  |  |  | 0.7 | 4.9 |  |
| Cc1cccc(NC(=O)NN2C(c3cc(C)cc(C)c3)=NOC2(C)C)c1 [RG-120056] |  |  |  | 0.1 | 1.0 |  |
| COc1ccccc1C1=NOC(C)(C)N1NC(=O)COc1ccccc1 [RG-120057] |  |  |  | 0.6 | 0.8 |  |
| CC1(C)ON=C(c2cccc(C(F)(F)F)c2)N1NC(=O)C(F)(F)C(F)(F)Cl [RG-120059] |  |  |  |  | 0.6 |  |
| COc1ccccc1C1=NOC(C)(C)N1NC(=O)C(F)(F)C(F)(F)Cl [RG-120062] |  |  |  | 0.2 | 0.6 |  |
| CC1(C)ON=C(c2ccc(OC(F)(F)F)cc2)N1NC(=O)COCc1ccccc1 [RG-120066] |  |  |  | 1.4 | 0.6 |  |
| CC1(C)ON=C(c2ccc(Cl)cc2)N1NC(=O)Nc1ccccc1 [RG-120067] |  |  |  | 2.6 | 0.5 |  |
| COc1ccc(C2=NOC(C)(C)N2NC(=O)Cc2ccccc2)c(OC)c1 [RG-120078] |  |  |  |  | 0.4 |  |
| CCc1c(OC)cccc1C(=O)NN1C(c2cccc(C(F)(F)F)c2)=NOC1(C)C [RG-120093] | < 4.48 | 5 | 0 |  |  | 0.2 |
| CC1(C)ON=C(c2cccc(C(F)(F)F)c2)N1NC(=O)c1cc2ccccc2s1 [RG-120108] |  |  |  |  | 0.3 |  |
| CC1(C)ON=C(c2ccc(OC(F)(F)F)cc2)N1NC(=O)c1cc2ccccc2s1 [RG-120109] |  |  |  |  | 0.2 |  |
| CCc1ccc(C(=O)NN2C(c3cccc(C(F)(F)F)c3)=NOC2(C)C)cc1 [RG-120148] | < 4.48 | 0.7 | 0 |  |  | 1.1 |
| COc1ccccc1C1=NOC(C)(C)N1NC(=O)Cc1ccccc1 [RG-120157] |  |  |  |  | 0.9 |  |
| CCc1ccc(C(=O)NN2C(c3cc(C)cc(C)c3)=NOC2(C)CC)c(F)c1 (stereo not drawn) [RG-121513] | ~5.00 | 1020 | 0.44 |  |  |  |
| CCc1ccc(C(=O)NN2C(c3ccccc3)=NOC23CCCC3)c(F)c1 [RG-121514] | 5.41 | 1.7 | 0.5 |  |  |  |
| CCc1ccc(C(=O)NN2C(c3cc(C)cc(C)c3)=NOC23CCCC3)c(F)c1 [RG-121515] | ~5.30 | 36.6 | 0.17 |  |  |  |
| CCc1ccc(C(=O)NN2C(c3ccccc3)=NOC2(C)C)c(F)c1 [RG-121516] | < 4.48 | 7.9 | 0 |  |  |  |
| CCc1c(C(=O)NN2C(c3ccccc3)=NOC2(C)C)ccc2c1OCCO2 [RG-121517, 5-ethyl-2,3-dihydro-benzo[1,4]dioxine-6-carboxylic acid (5,5-dimethyl-3-phenyl-[1,2,4]oxadiazol-4-yl)-amide] | ~4.70 | 3510 | 1.55 |  |  |  |
| CCc1c(C(=O)NN2C(c3cc(C)cc(C)c3)=NOC2(C)CC)ccc2c1OCCO2 (stereo not drawn) [RG-121518] | 5.45 | 2340 | 1.08 |  |  |  |
